The source of these data is patent US20080103151A9, “Heterocyclic compounds and their uses as therapeutic agents” (Xenon Pharmaceuticals Inc., priority 2005, published 2008).

The nature of series [1]: Stability of the isolated solid in the air. Format: physicochemical. The settings on record: white solid, turned to red in the air. Here is the method: A mixture of 3-hydroxy-3-(6-hydroxy-1,3-benzodioxol-5-yl)-1-pentyl-1,3-dihydro-2H-pyrrolo[3,2-c]pyridin-2-one (0.15 g, 0.42 mmol), triethylsilane (1.60 mL, 10.0 mmol) and trifluroacetic acid (0.74 mL, 10.0 mmol) was stirred at ambient temperature overnight. The mixture was diluted with ethyl acetate (100 mL), washed with water, dried over anhydrous sodium sulfate and filtered. The filtrate was concentrated in vacuo. The residue was triturated with diethyl ether to give the title compound as a white solid (not stable, turned to red in the air): MS (ES+) m/z 341.4 (M+1).

The target of series [2] is NaV1.8 (SK-N-BE2C neuroblastoma cell line) (Homo sapiens, UniProt Q9Y5Y9). Format: cell-based.
Another series has as its target Nav1.4 (CHO-K1 cells) (Cricetulus griseus, UniProt A0A9J7H6F9). Format: cell-based, Chinese Hamster.
Series [3] has as its target Nav1.2 (PC12 pheochromocytoma) (Rattus norvegicus, UniProt P04775).
Series [4] concerns Nav1.4 and 1.5 (L6 rat myoblast cell). The format is cell-based.

Nav1.2 (PC12 pheochromocytoma), sequence (P04775 whole entry, looked up): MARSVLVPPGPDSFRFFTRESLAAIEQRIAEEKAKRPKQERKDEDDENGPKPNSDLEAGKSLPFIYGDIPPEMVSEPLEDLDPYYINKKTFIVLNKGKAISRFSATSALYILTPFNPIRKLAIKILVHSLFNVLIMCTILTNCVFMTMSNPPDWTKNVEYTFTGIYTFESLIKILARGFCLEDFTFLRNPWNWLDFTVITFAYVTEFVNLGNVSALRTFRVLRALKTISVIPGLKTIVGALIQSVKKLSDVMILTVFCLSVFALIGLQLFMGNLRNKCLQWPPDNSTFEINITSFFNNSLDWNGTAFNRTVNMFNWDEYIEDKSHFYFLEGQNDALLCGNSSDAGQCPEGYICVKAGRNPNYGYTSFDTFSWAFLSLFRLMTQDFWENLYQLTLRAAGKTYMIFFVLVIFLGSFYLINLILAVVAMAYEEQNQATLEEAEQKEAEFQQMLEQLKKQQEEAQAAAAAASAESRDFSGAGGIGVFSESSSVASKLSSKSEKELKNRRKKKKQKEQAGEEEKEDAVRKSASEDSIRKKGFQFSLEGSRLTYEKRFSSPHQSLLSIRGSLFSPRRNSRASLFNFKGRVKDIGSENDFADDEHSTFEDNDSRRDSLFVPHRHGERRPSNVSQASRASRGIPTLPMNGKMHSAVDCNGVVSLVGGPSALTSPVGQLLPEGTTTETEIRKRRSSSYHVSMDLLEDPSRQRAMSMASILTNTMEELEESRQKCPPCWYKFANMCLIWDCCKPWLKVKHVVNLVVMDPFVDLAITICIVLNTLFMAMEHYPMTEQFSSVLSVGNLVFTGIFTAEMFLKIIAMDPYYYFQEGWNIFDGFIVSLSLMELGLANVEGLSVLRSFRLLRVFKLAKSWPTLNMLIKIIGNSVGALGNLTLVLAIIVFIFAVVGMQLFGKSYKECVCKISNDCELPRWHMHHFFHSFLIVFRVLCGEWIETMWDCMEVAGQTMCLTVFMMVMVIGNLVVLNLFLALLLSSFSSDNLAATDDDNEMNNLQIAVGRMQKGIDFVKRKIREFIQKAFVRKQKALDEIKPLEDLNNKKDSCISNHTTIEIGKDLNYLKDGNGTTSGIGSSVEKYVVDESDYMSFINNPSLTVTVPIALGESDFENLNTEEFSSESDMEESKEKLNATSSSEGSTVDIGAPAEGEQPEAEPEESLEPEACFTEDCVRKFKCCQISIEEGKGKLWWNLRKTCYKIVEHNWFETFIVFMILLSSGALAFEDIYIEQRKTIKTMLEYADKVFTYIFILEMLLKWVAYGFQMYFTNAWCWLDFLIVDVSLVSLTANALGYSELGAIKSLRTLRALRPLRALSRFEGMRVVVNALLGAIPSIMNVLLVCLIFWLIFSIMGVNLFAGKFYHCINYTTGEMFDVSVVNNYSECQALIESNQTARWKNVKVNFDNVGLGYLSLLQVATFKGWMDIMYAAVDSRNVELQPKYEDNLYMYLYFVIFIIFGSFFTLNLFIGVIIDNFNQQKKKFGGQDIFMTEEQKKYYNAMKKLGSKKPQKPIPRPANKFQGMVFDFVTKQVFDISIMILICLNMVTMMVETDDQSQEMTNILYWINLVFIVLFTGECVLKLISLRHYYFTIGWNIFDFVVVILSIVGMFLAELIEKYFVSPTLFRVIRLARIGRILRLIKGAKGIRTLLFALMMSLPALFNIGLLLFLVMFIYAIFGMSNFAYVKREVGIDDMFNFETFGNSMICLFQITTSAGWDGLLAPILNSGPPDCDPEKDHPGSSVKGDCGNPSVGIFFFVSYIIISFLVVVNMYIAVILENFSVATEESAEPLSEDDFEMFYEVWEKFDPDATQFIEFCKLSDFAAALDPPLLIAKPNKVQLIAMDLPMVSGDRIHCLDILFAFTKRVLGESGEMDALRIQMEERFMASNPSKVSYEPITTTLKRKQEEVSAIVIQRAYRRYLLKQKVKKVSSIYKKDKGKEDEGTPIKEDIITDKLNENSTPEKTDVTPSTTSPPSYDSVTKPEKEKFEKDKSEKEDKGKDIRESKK
Nav1.4 (CHO-K1 cells), sequence (A0A9J7H6F9 1-1930): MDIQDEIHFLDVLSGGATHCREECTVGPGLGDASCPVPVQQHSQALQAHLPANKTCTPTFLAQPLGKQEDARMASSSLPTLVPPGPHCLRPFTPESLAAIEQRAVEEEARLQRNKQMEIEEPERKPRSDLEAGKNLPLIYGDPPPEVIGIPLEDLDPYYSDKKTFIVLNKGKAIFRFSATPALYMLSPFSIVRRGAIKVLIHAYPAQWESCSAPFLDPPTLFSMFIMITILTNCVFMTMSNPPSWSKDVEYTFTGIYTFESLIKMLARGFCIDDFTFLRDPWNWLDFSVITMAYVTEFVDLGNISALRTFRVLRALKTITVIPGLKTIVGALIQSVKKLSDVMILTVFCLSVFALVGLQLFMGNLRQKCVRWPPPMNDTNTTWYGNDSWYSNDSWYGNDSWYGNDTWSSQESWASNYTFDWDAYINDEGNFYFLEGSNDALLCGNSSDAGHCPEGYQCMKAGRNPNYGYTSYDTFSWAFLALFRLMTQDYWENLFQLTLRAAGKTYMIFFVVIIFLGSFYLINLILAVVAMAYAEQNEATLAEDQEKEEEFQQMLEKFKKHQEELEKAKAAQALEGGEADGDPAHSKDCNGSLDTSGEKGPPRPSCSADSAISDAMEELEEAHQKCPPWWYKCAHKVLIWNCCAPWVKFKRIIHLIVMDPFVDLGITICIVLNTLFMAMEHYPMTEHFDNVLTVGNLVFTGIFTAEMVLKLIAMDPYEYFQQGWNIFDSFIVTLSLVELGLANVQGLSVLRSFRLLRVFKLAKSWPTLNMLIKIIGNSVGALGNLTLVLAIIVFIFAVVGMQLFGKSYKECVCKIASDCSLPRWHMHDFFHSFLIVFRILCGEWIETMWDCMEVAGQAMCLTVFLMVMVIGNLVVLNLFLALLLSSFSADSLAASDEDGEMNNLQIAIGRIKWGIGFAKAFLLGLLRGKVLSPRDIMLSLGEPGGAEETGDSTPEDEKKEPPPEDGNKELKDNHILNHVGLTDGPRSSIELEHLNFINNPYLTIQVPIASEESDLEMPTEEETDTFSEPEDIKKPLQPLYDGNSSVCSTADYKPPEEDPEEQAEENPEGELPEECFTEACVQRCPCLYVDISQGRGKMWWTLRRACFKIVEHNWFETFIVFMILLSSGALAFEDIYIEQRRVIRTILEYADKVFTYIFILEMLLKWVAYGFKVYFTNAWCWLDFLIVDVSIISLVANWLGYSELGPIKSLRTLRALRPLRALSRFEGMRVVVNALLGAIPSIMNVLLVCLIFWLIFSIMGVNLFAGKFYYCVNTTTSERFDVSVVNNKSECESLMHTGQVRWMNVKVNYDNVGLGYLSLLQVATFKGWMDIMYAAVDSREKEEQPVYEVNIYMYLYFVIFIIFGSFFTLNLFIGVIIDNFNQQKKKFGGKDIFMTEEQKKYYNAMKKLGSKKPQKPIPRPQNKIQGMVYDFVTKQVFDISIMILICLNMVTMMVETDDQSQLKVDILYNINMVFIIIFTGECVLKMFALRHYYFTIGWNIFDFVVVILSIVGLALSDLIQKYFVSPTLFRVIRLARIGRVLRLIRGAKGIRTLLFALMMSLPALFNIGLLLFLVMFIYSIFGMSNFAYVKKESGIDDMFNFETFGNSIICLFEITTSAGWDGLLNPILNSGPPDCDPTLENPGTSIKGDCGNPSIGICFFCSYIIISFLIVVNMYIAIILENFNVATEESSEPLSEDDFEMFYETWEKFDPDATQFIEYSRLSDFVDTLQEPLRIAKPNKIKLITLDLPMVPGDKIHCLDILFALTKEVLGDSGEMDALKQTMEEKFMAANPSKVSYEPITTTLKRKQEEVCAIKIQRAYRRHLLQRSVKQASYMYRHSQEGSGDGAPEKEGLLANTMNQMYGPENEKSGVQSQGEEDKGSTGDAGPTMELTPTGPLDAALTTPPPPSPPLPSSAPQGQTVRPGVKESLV

With `CCCCCN1C(=O)C(O)(c2ccc3c(c2)OCO3)c2cccnc21` (centres unmarked), the melting point lay within 104 to 105 °C.
Regarding `CCCCCN1C(=O)C(O)(c2cc3c(cc2O)OCO3)c2cnccc21` (centres unmarked), the melting point lay within 193 to 195 °C.
As to `CCCCCN1C(=O)C(c2cc3c(cc2O)OCO3)c2cnccc21` (centres unmarked) [Example 10, 3-(6-hydroxy-1,3-benzodioxol-5-yl)-1-pentyl-1,3-dihydro-2H-pyrrolo[3,2-c]pyridin-2-one], in series [1], the “stability of the solid in the air” value is listed as “not stable”.
`CCCCCN1C(=O)C(c2ccc3c(c2)OCO3)c2cccnc21` (centres unmarked) [Example 17, 3-(1,3-benzodioxol-5-yl)-1-pentyl-1,3-dihydro-2H-pyrrolo[2,3-b]pyridin-2-one] had a melting point of 75 to 77 °C.
Consider `NC1=N[C@H](O)[C@H]2[C@H]3O[C@]4(O)O[C@@H]([C@@H](O)[C@@]2(N1)[C@@H]4O)[C@]3(O)CO` [TTX, tetrodotoxin], for which the “block of [^14C] Guanidine influx by TTX” value in series [2] is given as “TTX partially blocked influx”; at Nav1.4 (CHO-K1 cells), “Guanidine influx was completely”; in series [3], “Guanidine influx was completely”; in series [4] it was “partially blocked by TTX (Nav1.5”.

As usually defined, the melting point is the temperature of the solid-liquid transition.
